Experimental data taken from patent US20240342320A1, “POLYPEPTIDE TARGETING INTEGRIN ALPHA 6 AND USE THEREOF” (GUANGZHOU GENBIONOVA MEDICAL TECHNOLOGY CO., LTD., priority 2021, published 2024).
Read-outs that look alike come from different tables or passages of the source. Positions of bridges follow the written chain, without caps; N, C: chain ends. Non-standard residues stand in square brackets, D forms with d. Residues, ends and D or L forms follow the SMILES beside them. *: point of attachment. NOTA = O=C(O)CN1CCN(CC(=O)O)CCN(CC(=O)*)CC1; PEG4 = NCCOCCOCCOCCOCCC(=O)O

Tests used:
[1] = molecular target: T1, integrin α6β4 (Homo sapiens, UniProt P16144+P23229); test: Microscale thermophoresis (MST) affinity to integrin α6β4; format: binding; conditions: MST
T1 sequence (P23229 24-1050 limits assumed): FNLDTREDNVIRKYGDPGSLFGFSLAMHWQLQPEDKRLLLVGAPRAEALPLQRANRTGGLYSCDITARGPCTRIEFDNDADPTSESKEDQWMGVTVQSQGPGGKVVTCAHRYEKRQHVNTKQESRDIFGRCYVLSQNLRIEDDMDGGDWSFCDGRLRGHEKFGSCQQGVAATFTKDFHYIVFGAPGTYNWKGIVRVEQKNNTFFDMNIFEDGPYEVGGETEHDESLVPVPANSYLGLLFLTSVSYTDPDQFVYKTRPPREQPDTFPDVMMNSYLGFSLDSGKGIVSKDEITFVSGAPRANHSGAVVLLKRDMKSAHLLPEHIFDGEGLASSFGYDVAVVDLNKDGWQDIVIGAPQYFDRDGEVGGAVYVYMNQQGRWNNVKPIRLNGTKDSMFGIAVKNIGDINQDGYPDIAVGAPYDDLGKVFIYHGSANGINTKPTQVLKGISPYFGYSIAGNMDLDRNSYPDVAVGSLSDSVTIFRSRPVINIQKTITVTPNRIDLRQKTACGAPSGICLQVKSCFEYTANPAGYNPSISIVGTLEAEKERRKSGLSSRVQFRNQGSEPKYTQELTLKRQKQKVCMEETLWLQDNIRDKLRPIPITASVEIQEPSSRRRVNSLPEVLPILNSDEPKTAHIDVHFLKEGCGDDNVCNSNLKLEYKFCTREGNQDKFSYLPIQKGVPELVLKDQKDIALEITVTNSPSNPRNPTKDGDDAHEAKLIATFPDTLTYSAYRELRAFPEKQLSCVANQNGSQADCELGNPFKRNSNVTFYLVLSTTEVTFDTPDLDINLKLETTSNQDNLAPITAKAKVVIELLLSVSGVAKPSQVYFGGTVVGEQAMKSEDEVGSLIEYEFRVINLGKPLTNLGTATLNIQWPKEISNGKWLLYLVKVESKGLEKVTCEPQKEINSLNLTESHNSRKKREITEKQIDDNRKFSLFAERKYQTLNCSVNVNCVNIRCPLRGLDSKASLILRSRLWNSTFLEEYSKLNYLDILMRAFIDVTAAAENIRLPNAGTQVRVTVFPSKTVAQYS
T1 sequence (P16144 28-710 partner limits assumed): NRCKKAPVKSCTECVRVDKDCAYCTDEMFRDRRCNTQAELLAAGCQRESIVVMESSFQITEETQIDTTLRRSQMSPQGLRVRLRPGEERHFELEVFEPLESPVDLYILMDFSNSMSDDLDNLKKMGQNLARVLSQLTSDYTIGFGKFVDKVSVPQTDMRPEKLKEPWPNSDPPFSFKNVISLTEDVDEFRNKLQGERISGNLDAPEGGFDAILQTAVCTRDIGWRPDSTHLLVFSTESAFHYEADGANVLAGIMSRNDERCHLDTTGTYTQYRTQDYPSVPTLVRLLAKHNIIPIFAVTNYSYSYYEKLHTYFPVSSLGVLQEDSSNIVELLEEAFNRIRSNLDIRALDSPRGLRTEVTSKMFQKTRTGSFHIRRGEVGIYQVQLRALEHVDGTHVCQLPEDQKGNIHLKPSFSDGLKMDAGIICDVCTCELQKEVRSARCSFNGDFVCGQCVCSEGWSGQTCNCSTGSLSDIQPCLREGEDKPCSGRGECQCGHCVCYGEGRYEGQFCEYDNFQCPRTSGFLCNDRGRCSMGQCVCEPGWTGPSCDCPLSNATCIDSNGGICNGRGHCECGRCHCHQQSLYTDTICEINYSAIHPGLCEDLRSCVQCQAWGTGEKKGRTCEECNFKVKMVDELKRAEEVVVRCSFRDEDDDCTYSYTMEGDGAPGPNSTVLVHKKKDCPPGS
Method: (§1) The affinity between these 18 polypeptides and integrin α6β4 was detected by microscale thermophoresis (MST) method as follows: • 1) Integrin α6β4 protein was dissolved to 800 nM, and polypeptide was dissolved to 100 μM. • 2) A RED-tris-NTA second-generation dye was diluted to 100 nM by using the MO series RED-tris-NTA protein labeling kit. • 3) 100 μl α6β4 protein was mixed with 50 μl dye and incubated at room temperature for 30 min, so that the α6β4 protein binds to the dye. • 4) 10 μl polypeptide was transferred into a PCR tube, and was diluted with PBST (containing 0.05% Tween 20) at a ratio of 1:1 to 16 gradients of concentrations. • 5) 3 μl protein/dye mixture was transferred into a PCR tube, 3 μl of 16 different concentrations of polypeptides was respectively added and mixed well. • 6) The mixture was absorbed by capillary and loaded on machine (instrument model Monolith NT.115) to assay, parameters were set as 80% LED/excitation power and medium MST power. • 7) MO. Affinity Analysis software was used to calculate the equilibrium dissociation constant KD between α6β4 protein and polypeptide by KD fitting mode.

[2] = molecular target: T2, integrin α6β4 (Homo sapiens, UniProt P23229); test: as above; format: binding; conditions: for Affinity relative to RWY: relative to CRWYDENAC (RWY) = 1.00
T2 sequence (P23229 24-1050 limits assumed): T1 sequence (P23229 24-1050 limits assumed)
T2 sequence (P16144 28-710 partner limits assumed): T1 sequence (P16144 28-710 partner limits assumed)
Method: as §1

[3] = integrin α6β4, determination 1, read-out: KD (um) 1
[4] = integrin α6β4, determination 2, read-out: KD (um) 2
[5] = integrin α6β4, determination 3, read-out: KD (um) 3
[6] = integrin α6β4, mean of 3, read-out: KD Mean value (μm)

C[C@H](NC(=O)[C@H](CC(=O)O)NC(=O)[C@H](Cc1ccc(O)cc1)NC(=O)[C@H](Cc1c[nH]c2ccccc12)NC(=O)[C@@H](N)CCCNC(=N)N)C(=O)O [P14, RWYDA] (H-RWYDA-OH; N-terminus and C-terminus assumed)
Kd [1, 3]: 6.28 µM
Kd [1, 4]: 4.69 µM
Kd [1, 5]: 4.22 µM
Kd [1, 6]: 5.06 µM
Affinity relative to RWY [2]: 1.38

N=C(N)NCCC[C@H](N)C(=O)N[C@@H](Cc1c[nH]c2ccccc12)C(=O)N[C@@H](Cc1ccc(O)cc1)C(=O)N[C@@H](CC(=O)O)C(=O)N[C@@H](CCC(=O)O)C(=O)O [P13, RWYDE] (H-RWYDE-OH; N-terminus and C-terminus assumed)
Kd [1, 3]: 14.7 µM
Kd [1, 4]: 78.8 µM
Kd [1, 5]: 99.6 µM
Kd [1, 6]: 64.4 µM
Affinity relative to RWY [2]: 0.11

C[C@@H]1NC(=O)[C@H](CC(N)=O)NC(=O)[C@H](C)NC(=O)[C@H](CC(=O)O)NC(=O)[C@H](Cc2ccc(O)cc2)NC(=O)[C@H](Cc2c[nH]c3ccccc23)NC(=O)[C@H](CCCNC(=N)N)NC(=O)[C@@H](N)CSSC[C@@H](C(=O)O)NC1=O [P6, CRWYDANAC] (H-CRWYDANAC-OH; disulfide 1-9; N-terminus and C-terminus assumed)
Kd [1, 3]: 1.21 µM
Kd [1, 4]: 7.99 µM
Kd [1, 5]: 3.83 µM
Kd [1, 6]: 4.34 µM
Affinity relative to RWY [2]: 1.61

C[C@@H]1NC(=O)[C@H](CC(N)=O)NC(=O)[C@H](CCC(=O)O)NC(=O)[C@H](CC(=O)O)NC(=O)[C@H](Cc2ccc(O)cc2)NC(=O)[C@H](Cc2c[nH]c3ccccc23)NC(=O)[C@H](C)NC(=O)[C@@H](N)CSSC[C@@H](C(=O)O)NC1=O [P2, CAWYDENAC] (H-CAWYDENAC-OH; disulfide 1-9; N-terminus and C-terminus assumed)
Kd [1, 3]: 4.03 µM
Kd [1, 4]: 12.1 µM
Kd [1, 5]: 3.58 µM
Kd [1, 6]: 6.58 µM
Affinity relative to RWY [2]: 1.06

C[C@H](NC(=O)[C@H](CCC(=O)O)NC(=O)[C@H](CC(=O)O)NC(=O)[C@H](Cc1ccc(O)cc1)NC(=O)[C@H](Cc1c[nH]c2ccccc12)NC(=O)[C@@H](N)CCCNC(=N)N)C(=O)O [P12, RWYDEA] (H-RWYDEA-OH; N-terminus and C-terminus assumed)
Kd [1, 3]: 5.26 µM
Kd [1, 4]: 2.49 µM
Kd [1, 5]: 1.74 µM
Kd [1, 6]: 3.16 µM
Affinity relative to RWY [2]: 2.20

C[C@H](NC(=O)[C@H](CC(N)=O)NC(=O)[C@H](C)NC(=O)[C@H](CC(=O)O)NC(=O)[C@H](Cc1ccc(O)cc1)NC(=O)[C@H](Cc1c[nH]c2ccccc12)NC(=O)[C@@H](N)CCCNC(=N)N)C(=O)O [P10, RWYDANA] (H-RWYDANA-OH; N-terminus and C-terminus assumed)
Kd [1, 3]: 62.1 µM
Kd [1, 4]: 17.5 µM
Kd [1, 5]: 12.4 µM
Kd [1, 6]: 30.6 µM
Affinity relative to RWY [2]: 0.23

C[C@@H]1NC(=O)[C@H](CC(N)=O)NC(=O)[C@H](CCC(=O)O)NC(=O)[C@H](C)NC(=O)[C@H](Cc2ccc(O)cc2)NC(=O)[C@H](Cc2c[nH]c3ccccc23)NC(=O)[C@H](CCCNC(=N)N)NC(=O)[C@@H](N)CSSC[C@@H](C(=O)O)NC1=O [P5, CRWYAENAC] (H-CRWYAENAC-OH; disulfide 1-9; N-terminus and C-terminus assumed)
Kd [1, 3]: 0.36 µM
Kd [1, 4]: 0.22 µM
Kd [1, 5]: 0.65 µM
Kd [1, 6]: 0.41 µM
Affinity relative to RWY [2]: 17.01

C[C@@H]1NC(=O)[C@H](CC(N)=O)NC(=O)[C@H](CCC(=O)O)NC(=O)[C@H](CC(=O)O)NC(=O)[C@H](Cc2ccc(O)cc2)NC(=O)[C@H](C)NC(=O)[C@H](CCCNC(=N)N)NC(=O)[C@@H](N)CSSC[C@@H](C(=O)O)NC1=O [P3, CRAYDENAC] (H-CRAYDENAC-OH; disulfide 1-9; N-terminus and C-terminus assumed)
Kd [1, 3]: 14.4 µM
Kd [1, 4]: 11.8 µM
Kd [1, 5]: 13.8 µM
Kd [1, 6]: 13.3 µM
Affinity relative to RWY [2]: 0.52

C[C@@H]1NC(=O)[C@H](C)NC(=O)[C@H](CCC(=O)O)NC(=O)[C@H](CC(=O)O)NC(=O)[C@H](Cc2ccc(O)cc2)NC(=O)[C@H](Cc2c[nH]c3ccccc23)NC(=O)[C@H](CCCNC(=N)N)NC(=O)[C@@H](N)CSSC[C@@H](C(=O)O)NC1=O [P7, CRWYDEAAC] (H-CRWYDEAAC-OH; disulfide 1-9; N-terminus and C-terminus assumed)
Kd [1, 3]: 0.25 µM
Kd [1, 4]: 0.25 µM
Kd [1, 5]: 1.37 µM
Kd [1, 6]: 0.62 µM
Affinity relative to RWY [2]: 11.19

C[C@H](NC(=O)[C@H](CC(=O)O)NC(=O)[C@H](Cc1ccc(O)cc1)NC(=O)[C@H](Cc1c[nH]c2ccccc12)NC(=O)[C@@H](N)CCCNC(=N)N)C(=O)N[C@@H](CC(N)=O)C(=O)O [P11, RWYDAN] (H-RWYDAN-OH; N-terminus and C-terminus assumed)
Kd [1, 3]: 34.6 µM
Kd [1, 4]: 23.2 µM
Kd [1, 5]: 35.7 µM
Kd [1, 6]: 31.2 µM
Affinity relative to RWY [2]: 0.22

C[C@H](NC(=O)[C@H](Cc1ccc(O)cc1)NC(=O)[C@H](Cc1c[nH]c2ccccc12)NC(=O)[C@@H](N)CCCNC(=N)N)C(=O)N[C@@H](CCC(=O)O)C(=O)N[C@@H](CC(N)=O)C(=O)O [P16, RWYAEN] (H-RWYAEN-OH; N-terminus and C-terminus assumed)
Kd [1, 3]: 7.31 µM
Kd [1, 4]: 6.08 µM
Kd [1, 5]: 9.74 µM
Kd [1, 6]: 7.71 µM
Affinity relative to RWY [2]: 0.90

N=C(N)NCCC[C@H](N)C(=O)N[C@@H](Cc1c[nH]c2ccccc12)C(=O)N[C@@H](Cc1ccc(O)cc1)C(=O)N[C@@H](CC(=O)O)C(=O)NCCOCCOCCOCCOCCC(=O)N[C@@H](CCCCNC(=O)CN1CCN(CC(=O)O)CCN(CC(=O)O)CC1)C(=O)O [RWYD-PEG4-K-NOTA] (H-RWYD[PEG4]K(NOTA)-OH)
Kd ([2]; MST, integrin α6β4): 0.642 ± 0.261 µM

C[C@@H]1NC(=O)[C@H](CC(N)=O)NC(=O)[C@H](CCC(=O)O)NC(=O)[C@H](CC(=O)O)NC(=O)[C@H](Cc2ccc(O)cc2)NC(=O)[C@H](Cc2c[nH]c3ccccc23)NC(=O)[C@H](CCCNC(=N)N)NC(=O)[C@@H](N)CSSC[C@@H](C(=O)O)NC1=O [P1, CRWYDENAC] (H-CRWYDENAC-OH; disulfide 1-9; N-terminus and C-terminus assumed)
Kd [1, 3]: 8.59 µM
Kd [1, 4]: 6.52 µM
Kd [1, 5]: 5.81 µM
Kd ([1]; integrin α6β4, read-out: KD): 6.97 ± 1.44 µM
Affinity relative to RWY [2]: 1.00

N=C(N)NCCC[C@H](N)C(=O)N[C@@H](Cc1c[nH]c2ccccc12)C(=O)N[C@@H](Cc1ccc(O)cc1)C(=O)N[C@@H](CC(=O)O)C(=O)N[C@@H](CCC(=O)O)C(=O)N[C@@H](CC(N)=O)C(=O)O [P9, RWYDEN] (H-RWYDEN-OH; N-terminus and C-terminus assumed)
Kd [1, 3]: 9.69 µM
Kd [1, 4]: 8.73 µM
Kd [1, 5]: 13.1 µM
Kd [1, 6]: 10.5 µM
Affinity relative to RWY [2]: 0.66
